Laboratory results taken from ChEMBL document CHEMBL3808363, “2-(Thienothiazolylimino)-1,3-thiazolidin-4-ones inhibit cell division cycle 25 A phosphatase” (Bioorg Med Chem, 2016).
Calls of active or inactive are those of the source. The rule behind the calls is not given here.

Assays:
[1] = molecular target: T1, M-phase inducer phosphatase 1 (Homo sapiens) (UniProt P30304); assay: Reversible binding affinity to human recombinant full length GST-tagged CDC25A transfected in Escherichia coli BL21-DE3 after 1 hr by MALDI-TOF mass spectrometry
T1 sequence (whole entry): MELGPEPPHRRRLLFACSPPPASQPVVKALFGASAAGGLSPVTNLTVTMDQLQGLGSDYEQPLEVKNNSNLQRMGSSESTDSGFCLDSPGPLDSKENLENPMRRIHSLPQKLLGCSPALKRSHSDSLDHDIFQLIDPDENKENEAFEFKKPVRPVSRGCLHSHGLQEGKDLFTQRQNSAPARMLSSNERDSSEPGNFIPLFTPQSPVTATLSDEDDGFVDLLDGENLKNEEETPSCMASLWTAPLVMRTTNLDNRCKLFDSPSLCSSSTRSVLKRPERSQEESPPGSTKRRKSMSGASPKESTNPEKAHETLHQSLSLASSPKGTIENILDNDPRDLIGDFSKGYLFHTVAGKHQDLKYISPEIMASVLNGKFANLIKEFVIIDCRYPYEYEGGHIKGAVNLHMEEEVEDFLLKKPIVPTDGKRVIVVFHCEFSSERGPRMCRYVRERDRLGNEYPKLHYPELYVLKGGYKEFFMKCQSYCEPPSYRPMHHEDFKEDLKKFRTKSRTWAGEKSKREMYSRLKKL

MDA-MB-231 [2] = assay: Antiproliferative activity against human MDA-MB-231 cells assessed as cell viability at IC50 concentration after 48 hrs by 2',7'-dichlorofluorescin diacetate/PI staining based flow cytometry; type: functional
[3] = molecular target: T2, M-phase inducer phosphatase 1 (Homo sapiens, UniProt P30304); assay: (§1) Mixed type inhibition of human recombinant full length GST-tagged CDC25A transfected in Escherichia coli BL21-DE3 assessed as enzyme/inhibitor complex using 3-O-methylfluorescein phosphate as substrate at 20 uM incubated for 20 mins followed by substrate addition measured every 10 mins for 2 hrs by fluorimetric assay
T2 sequence (P30304 whole entry): T1 sequence (whole entry)

[4] = molecular target: T1, M-phase inducer phosphatase 1 (Homo sapiens); assay: (§2) Inhibition of human recombinant full length GST-tagged CDC25A transfected in Escherichia coli BL21-DE3 using 3-O-methylfluorescein phosphate as substrate at 10 uM incubated for 20 mins followed by substrate addition measured every 10 mins for 2 hrs by fluorimetric assay
MCF7 [5] = assay: Induction of autophagy in human MCF7 cells assessed as acidic vesicles at 5.1 uM over 3 days by acridine orange dye based flow cytometry; type: functional, cell-based
[6] = molecular target: T1, M-phase inducer phosphatase 1 (Homo sapiens); assay: as §2, with “assay in presence of 0.025% triton X 100” for “assay”
[7] = molecular target: T1, M-phase inducer phosphatase 1 (Homo sapiens); assay: Inhibition of human recombinant full length GST-tagged CDC25A transfected in Escherichia coli BL21-DE3 using 3-O-methylfluorescein phosphate as substrate at 10 uM incubated for 20 mins followed by substrate addition measured every 10 mins for 2 hrs by fluorimetric assay in presence of 0.1% BSA
[8] = molecular target: T2, M-phase inducer phosphatase 1; assay: as §1, with “enzyme/substrate/inhibitor” for “enzyme/inhibitor”
MCF7 [9] = assay: Cytotoxicity against human MCF7 cells assessed as inhibition of cell growth at IC50 concentration after 72 hrs by trypan blue assay; type: functional
HT-29 = assay: Cytotoxicity against human HT-29 cells assessed as inhibition of cell growth after 72 hrs by MTT assay; type: functional, cell-based; conditions: HT-29, 72 h
[10] = molecular target: T1, M-phase inducer phosphatase 1 (Homo sapiens); assay: as §2, with “assay in presence of 0.01% triton X 100” for “assay”
[11] = molecular target: T1, M-phase inducer phosphatase 1 (Homo sapiens); assay: as §2, with “assay in presence of 0.05% triton X 100” for “assay”
MCF7 [12] = assay: Increase in peroxynitryl radical levels in human MCF7 cells at IC50 concentration incubated for 24 hrs by DHR dye based flow cytometry; type: functional, cell-based
[13] = molecular target: T3, M-phase inducer phosphatase 2 (Homo sapiens) (UniProt P30305); assay: Inhibition of human recombinant GST-tagged CDC25B catalytic domain transfected in Escherichia coli BL21-DE3 using 3-O-methylfluorescein phosphate as substrate at 10 uM incubated for 20 mins followed by substrate addition measured every 10 mins for 2 hrs by fluorimetric assay
T3 sequence (whole entry): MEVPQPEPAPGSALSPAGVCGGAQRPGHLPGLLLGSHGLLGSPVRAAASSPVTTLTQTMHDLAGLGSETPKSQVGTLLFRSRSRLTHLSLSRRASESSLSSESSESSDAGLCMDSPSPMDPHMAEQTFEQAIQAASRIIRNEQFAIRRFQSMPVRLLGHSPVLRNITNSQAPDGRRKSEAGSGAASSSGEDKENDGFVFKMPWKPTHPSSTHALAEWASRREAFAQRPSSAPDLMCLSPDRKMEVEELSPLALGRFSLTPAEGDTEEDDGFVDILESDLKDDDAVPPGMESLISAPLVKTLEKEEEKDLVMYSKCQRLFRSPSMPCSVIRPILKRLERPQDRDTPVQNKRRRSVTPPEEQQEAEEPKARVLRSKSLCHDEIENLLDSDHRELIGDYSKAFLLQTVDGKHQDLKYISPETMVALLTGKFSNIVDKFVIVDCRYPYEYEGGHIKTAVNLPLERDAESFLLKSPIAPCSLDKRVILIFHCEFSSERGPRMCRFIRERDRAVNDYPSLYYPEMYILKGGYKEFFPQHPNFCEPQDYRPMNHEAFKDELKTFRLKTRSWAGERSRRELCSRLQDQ

MDA-MB-231 [14] = assay: Cell cycle arrest in human MDA-MB-231 cells assessed as accumulation at subG1 phase at IC50 concentration after 48 hrs by propidium iodide staining-based flow cytometry; type: functional
MDA-MB-231 [15] = assay: Cell cycle arrest in human MDA-MB-231 cells assessed as accumulation at G2/M phase at IC50 concentration after 48 hrs by propidium iodide staining-based flow cytometry (reference value: 20.9 +/- 1.1%); type: functional
MDA-MB-231 [16] = assay: Induction of apoptosis in human MDA-MB-231 cells assessed as nuclear fragmentation after 24 hrs by dihydro-rhodamine 123/hoechst […] staining based UV fluorescent microscopy; type: functional, cell-based
MCF7 [17] = assay: Cytostatic activity against human MCF7 cells at IC50 concentration; type: functional, cell-based
[18] = molecular target: T2, M-phase inducer phosphatase 1; assay: Inhibition of human recombinant full length GST-tagged CDC25A transfected in Escherichia coli BL21-DE3 using 3-O-methylfluorescein phosphate as substrate incubated for 20 mins followed by substrate addition measured every 10 mins for 2 hrs by fluorimetric assay
[19] = molecular target: Cyclin-dependent kinase 1 (Homo sapiens) (UniProt P06493); assay: Effect on CDK1 phosphorylation in human MCF7 cells after 6 hrs by Western blot analysis; type: cell-based
MCF7 [20] = assay: Cell cycle arrest in human MCF7 cells assessed as accumulation at G0/G1 phase at IC50 concentration after 48 hrs by propidium iodide staining-based flow cytometry (reference value: 66.7 +/- 1.6%); type: functional

Cyclin-dependent kinase 1 (Homo sapiens), sequence (P06493 whole entry, looked up): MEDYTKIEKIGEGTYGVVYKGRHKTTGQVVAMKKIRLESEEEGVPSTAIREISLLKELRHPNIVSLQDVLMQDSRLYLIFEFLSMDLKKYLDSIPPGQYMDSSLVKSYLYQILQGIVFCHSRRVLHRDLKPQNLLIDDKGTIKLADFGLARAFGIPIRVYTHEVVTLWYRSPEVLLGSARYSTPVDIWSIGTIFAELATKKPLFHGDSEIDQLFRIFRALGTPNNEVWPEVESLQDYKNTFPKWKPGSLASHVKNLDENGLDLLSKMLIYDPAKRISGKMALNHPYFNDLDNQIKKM

Structure (SMILES): COc1ccc(/C=C2/S/C(=N\c3nc4cc(-c5ccc(Cl)cc5)sc4s3)NC2=O)cc1
- Activity [1]: Active
- Activity (MDA-MB-231 [2]): inactive
- Ki [3]: 3.1 µM
- inhibition [4]: 70.3%
- Activity (MCF7 [5]): inactive
- inhibition [6]: 27.1%
- inhibition [7]: 21.8%
- Ki [8]: 3.9 µM
- growth inhibition (GI) (MCF7 [9]): 45%
- IC50 (HT-29): 10.3 µM
- inhibition [10]: 28.2%
- inhibition [11]: 54.4%
- Activity (MCF7 [12]): Active
- inhibition [13]: 36.7%
- Activity (MDA-MB-231 [14]): inactive
- Activity (MDA-MB-231 [15]): 15.9%
- Activity (MDA-MB-231 [16]): inactive
- Activity (MCF7 [17]): Active
- IC50 [18]: 6.2 µM
- Activity [19]: inactive
- Activity (MCF7 [20]): 58.8%
